The text below walks through data of patent US20170157212A1, “CDK MODULATORS AND METHODS FOR THE TREATMENT OF CANCER” (Salk Institute for Biological Studies, priority 2015, published 2017).

“Also recorded” adds a separate entry of the source.

For one assay, the target named is T1, CDK9 (Homo sapiens, UniProt P50750).
T1 construct: endogenous in cells
Put plainly: Co-immunoprecipitation of CRIF1 with CDK9. It counts as binding. The source says:
(§1) FIGS. 5A-5I. The Mitochondrial OX-PHOS Regulator, CRIF1, is a Novel Subunit of the Human CDK12 Kinase Complex. (A) Identification of CRIF1 as a near-stoichiometric subunit of the native CDK12 kinase complex. MudPIT analysis of CDK12 complexes from HEK293 cells that stably express HA-tagged full-length human CDK12. The HA-CDK12 complex was affinity-purified using anti-HA antibody and visualized by SDS-PAGE and silver-stain. (B) List of the identified proteins in the HA-CDK12 complex from (A). (C) Endogenous CRIF1 co-immunoprecipitates with native CDK12 in U2OS cell extracts. Shown is an immunoblot analysis of CRIF1, CCNK, and the chaperone proteins CDC37 and HSP90 in an anti-CDK12 immunoprecipitate. (D) CRIF1 is a specific subunit of the CDK12 complex. Native CRIF1 was immunoprecipitated from U2OS cells using an anti-CRIF1 antibody and analyzed by co-immunoprecipitation for association with various CDKs, as indicated. […] FLAG-CRIF1 proteins containing different C-terminal truncations were co-expressed with HA-CDK12 (aa 985-1490) and analyzed for binding by co-immunoprecipitation and immunoblot. […] Cell viability was analyzed after 72 hr. […] Expression of the mitochondrial MTCO-1 (COX1) protein was assessed using two different antisera. […] Each fraction (T; total, C:cytosolic, M:membrane/organelle, and N:nuclear) was analyzed by immunoblot using the indicated antibodies. […]

In assay [1] the target is T2, mTORC1/Raptor kinase complex (Homo sapiens, UniProt P42345).
T2 construct: made in house
Put plainly: In vitro kinase assay: mTORC1 phosphorylation of recombinant 4E-BP1 (T37/46). It counts as biochemical. Particulars: same reactions with CDK12 and mTORC1/Raptor. The source says: To enable priming of 4E-BP1 by mTORC1, these reactions contained both affinity-purified CDK12 and the mTORC1/Raptor kinase complexes. […] Consistent with a gain-of-function for CDK12 kinase activity in CRIF1 knockdown cells, enhanced binding of eIF4G to target mRNAs was observed (FIG. 6H, upper panel) that were identified previously by RIP-seq, with no effects on total mRNA levels (FIG. 6H, bottom panel).

In another assay the target is T3, CDK7 (Homo sapiens, UniProt P50613).
T3 construct: endogenous in cells
Nature of the assay: Co-immunoprecipitation of CRIF1 with CDK7. It counts as binding.
Text: as §1

T1 sequence (P50750 whole entry): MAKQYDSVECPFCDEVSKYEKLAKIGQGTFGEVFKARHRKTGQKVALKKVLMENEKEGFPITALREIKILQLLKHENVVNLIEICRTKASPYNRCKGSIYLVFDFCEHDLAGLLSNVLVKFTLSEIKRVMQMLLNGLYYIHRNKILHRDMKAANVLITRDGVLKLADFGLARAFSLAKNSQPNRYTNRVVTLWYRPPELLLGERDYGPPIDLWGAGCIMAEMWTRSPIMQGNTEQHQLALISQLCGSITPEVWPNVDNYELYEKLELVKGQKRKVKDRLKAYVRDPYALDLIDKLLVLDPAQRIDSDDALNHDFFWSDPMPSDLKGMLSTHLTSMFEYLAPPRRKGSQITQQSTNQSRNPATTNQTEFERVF
T3 sequence (P50613 whole entry): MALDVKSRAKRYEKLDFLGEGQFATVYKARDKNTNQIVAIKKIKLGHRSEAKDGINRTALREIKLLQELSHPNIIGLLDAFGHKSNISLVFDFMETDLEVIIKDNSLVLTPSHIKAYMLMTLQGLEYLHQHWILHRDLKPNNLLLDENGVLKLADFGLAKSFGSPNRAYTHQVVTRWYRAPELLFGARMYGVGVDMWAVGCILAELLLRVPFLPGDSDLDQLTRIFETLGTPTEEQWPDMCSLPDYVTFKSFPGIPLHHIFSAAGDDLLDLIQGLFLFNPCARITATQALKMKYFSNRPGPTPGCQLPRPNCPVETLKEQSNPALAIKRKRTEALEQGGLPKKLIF

On to “Growth Arrest and DNA Damage-Inducible Proteins-Interacting Protein 1 [CRIF1]”, for which the “presence in / binding to CDK9 complexes” value at CDK9 is listed as “not present; also recorded: does not bind”. The “phosphorylation of the T37/46 sites of 4E-BP1 by mTORC1” value in assay [1] is given as “without affecting”. Further, the “presence in / binding to CDK7 complexes” value at CDK7 is given as “not present; also recorded: does not bind”.
